# Results reported in PubChem BioAssay AID1645848.
# “And” between values parts separate entries of the source, which are not always exact repeats. Identical values can stand only once.
# Conditions: buffer; pH 7.4; 6.0 h; 150.0 µM
row,SMILES,solubility kinetic
1,O=C(NCc1ccccc1)c1nc(S(=O)(=O)Cc2ccc(F)cc2)ncc1Cl,< 1 µg/mL
2,COc1ccc(-c2noc([C@@H]3Cc4nc[nH]c4CN3C(=O)NC3CCCCC3)n2)cc1,30.5 µg/mL
3,CCc1cccc(C)c1Nc1c(-c2ccc(N(C)C)cc2)nc2ncccn12,1.88 µg/mL
4,CC(=O)c1ccc(N2CCN(c3ccc(NC(=O)c4ccc(F)cc4)cc3C(=O)O)CC2)cc1,< 1 µg/mL
5,CCCCCN(CCC12CC3CC(CC(C3)C1)C2)C(=O)NCCCc1ccncc1,< 1 µg/mL
6,COC(=O)C1=C(C)NC(=O)CC1C(=O)Nc1ccc(Cl)cc1 (stereo not given),31.2 µg/mL
7,CC1=C(C(=O)Nc2ccccc2)C(c2ccc[nH]2)n2ncnc2N1 (stereo not given),9.06 µg/mL
8,NC(=O)C1CCN(c2nc(-c3cccs3)cs2)CC1,> 43 µg/mL
9,O=S(=O)(Nc1cccc(C(F)(F)F)c1)c1ccc(NS(=O)(=O)c2ccc3c(c2)OCCO3)cc1,< 1 µg/mL
10,COc1ccccc1-c1csc(N2CCC(C(N)=O)CC2)n1,3.08 µg/mL
11,CC(=O)c1c(C)[nH]c(C(=O)Nc2ccc(Cl)cc2)c1C,1.96 µg/mL
12,CCCN1C(CC(C)C)=NS(=O)(=O)c2cc(NC(=O)c3ccco3)ccc21,< 1 µg/mL
13,Cc1nn2c(c1-c1ccccc1OCc1ccccc1)N(C(=O)Cc1ccc3c(c1)OCO3)CCC2,< 1 µg/mL
14,CCc1cccc(NC(=O)CSc2nc3ccccc3nc2N2CCCCC2)c1,< 1 µg/mL
15,O=[S+]([O-])(Nc1ccc(N2CCNCC2)cc1)c1ccc(NCc2ccc(Br)cc2O)cc1,20.1 µg/mL
16,CC1(COc2ccc3c(c2)ncn3-c2ccc3cccc(N4CCC(N)CC4)c3n2)COC1,36.8 µg/mL
17,O=C1CCCC2=C1C(c1[nH]ncc1Cl)N=C(Nc1nc3cc([S+](=O)([O-])N4CCOCC4)ccc3o1)N2 (stereo not given),> 78 µg/mL
18,CC(=O)c1ccc(N2CCN(S(=O)(=O)c3ccc4[nH]c(=O)[nH]c4c3)CC2)cc1,1.19 µg/mL
19,Cc1cc(C)nc(NC(=S)N2CCN(c3ccc(F)cc3F)CC2)c1,24.8 µg/mL
20,Cn1c(=O)c2c(-c3ccc(Cl)cc3)n(CCc3ccccc3)cc2n(C)c1=O,2.15 µg/mL
21,CC1=C[C@@H](CNCc2cccnc2)[C@H](C(C)C)C[C@H]1Cc1nnc(-c2ccc([N+](=O)[O-])cc2)o1,> 68 µg/mL
22,CC(=O)c1ccc(N2CCN(C(=O)c3ccc4c(c3)CC(=O)N4)CC2)cc1,> 54 µg/mL
23,COc1ccc2oc(NC3=NC(c4[nH]ncc4Cl)C4=C(CCCC4=O)N3)nc2c1 (stereo not given),11.2 µg/mL
24,CC(C)OC(=O)c1ccnc2cc(C(OCCN3CCCCC3)c3ccccc3Cl)sc12 (stereo not given),16.6 µg/mL
25,OC1(CN2CCN(c3ccc(F)c(Cl)c3)CC2)CCCNC1 (stereo not given),> 48 µg/mL

row,SMILES,solubility kinetic
1,CCOc1ccc(N2C(=O)c3n[nH]c(-c4cccs4)c3C2c2cccc(F)c2)cc1 (stereo not given),< 1 µg/mL
2,O=C(NCCc1ccc(OCC(F)(F)F)c(OCC(F)(F)F)c1)c1cc2sccc2n1Cc1ccccc1,< 1 µg/mL
3,CCOc1ccc(CCNC(=O)c2cc3ccccc3n2Cc2cccc(C)c2)cc1OCC,< 1 µg/mL
4,O=C(Nc1ccc2oc(-c3ccncc3)nc2c1)c1ccccc1Cl,< 1 µg/mL
5,CC(=O)C1CCN(c2ncc(-c3cccc(N(C)C)c3)s2)CC1,3.33 µg/mL
6,Fc1ccc(Nc2nc(Nc3ccncc3)nc3ccccc23)cc1F,2.19 µg/mL
7,Cc1ccc(S(=O)(=O)Nc2ccccc2Nc2nc(-c3ccccc3)cs2)cc1,< 1 µg/mL
8,O=C(NCCCc1ccccc1)C1CCN(c2nc(-c3ccc(Br)cc3)cs2)CC1,3.28 µg/mL
9,CCOc1ccccc1C(=O)NC1CCN(c2cc(C)cc(C)c2)C1=O (stereo not given),26.8 µg/mL
10,CC(=O)NC(c1cccs1)c1cc(Br)c2cccnc2c1O (stereo not given),< 1 µg/mL
11,COc1ccc(-c2csc(NC(=O)c3ccccc3NS(=O)(=O)c3ccc(C)cc3)n2)cc1,< 1 µg/mL
12,COCCn1ccc2c(C3=CCOCC3)nc(-c3ccc4c(c3)CNC4=O)cc21,> 86 µg/mL
13,O=C(Nc1ccc2oc(-c3cccnc3)nc2c1)c1ccc(-c2cccc(Cl)c2)o1,1.1 µg/mL
14,COc1ccc(C2=Nn3c([n+](C)c4ccccc43)SC2)cc1.[Br-],> 46 µg/mL
15,CC(=O)Nc1ncc(S(=O)(=O)N2CCOCC2)s1,26.6 µg/mL
16,CN=C1CN=C(c2ccc[nH]2)c2cc(Cl)ccc2N1,10.8 µg/mL and 28.3 µg/mL
17,COc1oc(-c2cccc3ccccc23)nc1C(=O)O,> 40 µg/mL
18,COc1ccc(CN2CCNc3cc(Nc4ccccc4)ncc3C2)cc1,45.4 µg/mL
19,CCc1ccccc1-n1c(SCC(=O)Nc2ccc(C)cc2)nc2n[nH]c(C)c2c1=N,< 1 µg/mL
20,O=C(Nc1nc(-c2ccc(Cl)s2)cs1)c1cccs1,< 1 µg/mL
21,CN(C)c1ccc(S(=O)(=O)N2CCCCC2)cc1NS(=O)(=O)c1ccc2ccccc2c1,2.05 µg/mL
22,CC[C@H]1CN2CCc3cc(OC)c(OC)cc3[C@@H]2C[C@@H]1C[C@H]1NCCc2cc(OC)c(OC)cc21,> 71 µg/mL
23,COc1ccc(-n2nc(C)c([C@@H]3C=C[C@@H](NCc4cccc(Cl)c4)C3)c2C)cc1,46.2 µg/mL
24,COc1cccc(S(=O)(=O)Nc2cnccc2C(=O)Nc2nc(-c3ccccc3)cs2)c1,53.9 µg/mL
25,COc1ccc(-c2cc(-c3cccc(NC(C)=O)c3)cn3cncc23)cn1,6.93 µg/mL

row,SMILES,solubility kinetic
1,COc1ccc(CCn2c(N)cc(=O)[nH]c2=S)cc1OC,> 45 µg/mL
2,CCn1ncc(NC(=O)Cn2ncc3cc(-c4cccc(OC)c4)ccc32)n1,< 1 µg/mL
3,COc1ccccc1C(=O)NC1CCCc2c1[nH]c1c(Cl)cccc21 (stereo not given),< 1 µg/mL
4,Fc1cc(Nc2nc(-c3ccncc3)nc3ccccc23)ccc1-c1cn[nH]c1,< 1 µg/mL
5,Cc1ccc2c(c1)N(S(=O)(=O)c1cc(-c3onc(C)c3C)ccc1C)CCO2,< 1 µg/mL
6,CN(C)c1cccc(-c2cnc(Nc3cccnc3)c3c2CCO3)c1,< 1 µg/mL
7,Clc1ccc(C2=Nn3c(nnc3-c3ccncc3)SC2)cc1,1.45 µg/mL
8,CN1CCN(c2ccc(Nc3nn4c(=O)c5ccccc5nc4s3)cc2)CC1,> 58 µg/mL
9,CCOc1ccc(NC(=O)c2ccc(F)c(S(=O)(=O)N(CC)Cc3ccccc3)c2)cc1,< 1 µg/mL
10,CN(C)CCN1C(=O)c2cccc3cc(N)cc(c23)C1=O,> 42 µg/mL
11,COc1ccc(Cl)cc1C(=O)Nc1ccc(NC(=O)c2ccco2)cc1,< 1 µg/mL
12,CSc1ccc(/C=C/c2nc3ccccc3n2S(=O)(=O)c2ccc(Br)cc2)cc1,2.73 µg/mL
13,CCN(CC)S(=O)(=O)c1ccc(N2CCCC2)c(NS(=O)(=O)c2ccc(C)cc2)c1,4.02 µg/mL
14,Cc1cccc(OCC(=O)Nc2ccc3nc(Nc4cccc(Cl)c4)cc(C)c3c2)c1,< 1 µg/mL
15,Cc1cc(-c2nc(Nc3ccc(F)c(F)c3)c3ccccc3n2)ccn1,< 1 µg/mL
16,Nc1ccc(CNc2ccc([S+](=O)([O-])Nc3nccs3)cc2)c(O)c1,45.7 µg/mL
17,CN(C(=O)c1cn2c(-c3ccc(C(F)(F)F)cc3)cnc2cn1)c1ccc(C#N)cc1,3.56 µg/mL
18,O=S(=O)(Nc1nc2ccccc2s1)c1ccc(NCc2ccc(Br)cc2O)cc1,4.87 µg/mL
19,Cc1ccc(S(=O)(=O)Nc2cnccc2C(=O)Nc2nc(-c3ccccc3Cl)cs2)cc1,0.005 µg/mL
20,NC(=O)C1CCN(c2cc(-c3ccc4c(c3)OCCCO4)ncn2)CC1,> 52 µg/mL
21,O=C(Nc1ncc(Cc2ccc(C(F)(F)F)cc2)s1)c1cnc(-c2ccccc2)[nH]1,< 1 µg/mL
22,COCCCOc1ccnc(CS(=O)c2nc3ccccc3[n-]2)c1C (stereo not given),19.2 µg/mL
23,O=C1CCCC2=C1C(c1[nH]ncc1Cl)N=C(Nc1nc3ccc(Cl)cc3o1)N2 (stereo not given),1 µg/mL
24,Fc1ccccc1-c1ccc(Nc2nc(-c3ccncc3)nc3ccccc23)cc1F,< 1 µg/mL
25,COc1ccccc1CNc1ccc(S(=O)(=O)Nc2nccs2)cc1,37.4 µg/mL

row,SMILES,solubility kinetic
1,CN(C)c1cccc(-c2nnc(N3CCC(C(N)=O)CC3)s2)c1,> 49 µg/mL
2,Cc1ccccc1C(=O)N1CCc2cc(-c3nc(NC(=O)Cc4ccc5c(c4)OCCO5)sc3C)ccc21,< 1 µg/mL
3,O=C(Nc1ncnc2sc3c(c12)CCCCC3)c1ccco1,1.72 µg/mL
4,CNc1oc(-c2cccc(Cl)c2Cl)nc1C#N,< 1 µg/mL
5,CCN1CCN(c2ncc3c(n2)CCN(Cc2cc(Br)cs2)C3)CC1,37.1 µg/mL
6,O=S(=O)(Nc1nccs1)c1ccc(NCc2ccc(Cl)cc2O)cc1,1.32 µg/mL
7,Cc1ccc(S(=O)(=O)Nc2ccccc2C(=O)Nc2cccc(-c3ccccc3)c2)cc1,< 1 µg/mL
8,CC1(C)CCC(CN2CCN(c3ccc(C(=O)NS(=O)(=O)c4ccc(NCC5CCOCC5)c([N+](=O)[O-])c4)c(Oc4cnc5[nH]ccc5c4)c3)CC2)=C(c2ccc(Cl)cc2)C1,< 1 µg/mL
9,COc1ccc(NS(=O)(=O)c2ccc(C)c(C(=O)Nc3ccc4oc(C)nc4c3)c2)cc1,8.77 µg/mL
10,COc1ccc(CNc2ccc(S(=O)(=O)Nc3nccs3)cc2)c(O)c1,45.4 µg/mL
11,O=C(O)CCC(=O)Nc1nc(-c2ccccc2)cs1,> 41 µg/mL
12,Brc1ccc(-c2csc(N3CCOCC3)n2)cc1,1.12 µg/mL
13,Fc1ccc(CN2CCOC[C@H]2c2ncc(-c3ccc(Cl)s3)[nH]2)cc1,5.47 µg/mL
14,Cc1ccc(S(=O)(=O)Nc2ccc(C(=O)Nc3nc(-c4ccccc4)cs3)c(Cl)c2)cc1,< 1 µg/mL
15,Cc1onc(-c2ccc(F)cc2)c1COc1ccc(C(=O)N2CCS(=O)(=O)CC2)cn1,> 66 µg/mL
16,Cc1ccc2oc(NC3=NC(c4[nH]ncc4Cl)C4=C(CCCC4=O)N3)nc2c1 (stereo not given),1.35 µg/mL
17,COc1cncc(Nc2ncc(-c3cccc(N(C)C)c3)c3c2OCC3)c1,< 1 µg/mL
18,COc1cccc(CNC(=O)c2c(OC)cc(=O)n3c2CCN(C(=O)c2ccc(C)cc2C)CC3)c1,> 72 µg/mL
19,O=C(Nc1ccc(F)c(C(F)(F)F)c1)Nc1nnc(-c2ccncc2)s1,< 1 µg/mL
20,Nc1nc2c(s1)C(c1cccc(Cl)c1Cl)CC(=O)N2 (stereo not given),< 1 µg/mL
21,Cc1cnc(-c2ccccc2C(C)C)nc1NCC1CCN(c2cccnc2)CC1,< 1 µg/mL
22,CCOC(=O)c1ccc(NC2CCCCC2)c(N)c1,31 µg/mL
23,O=C(Nc1ccc(S(=O)(=O)Nc2nccs2)cc1)c1cc(-c2ccccc2)nc2ccccc12,0.098 µg/mL
24,Cc1ccc(-n2c(C)cc(-c3nnc4n3CCCCC4)c2C)cc1,27.8 µg/mL
25,CC1CCN(C(=O)c2ccc(-c3ccc(N4CCSCC4)nc3)cc2)CC1,2.44 µg/mL
